This note sets out measurements from patent publication US7582649B2, “Hydroxy alkyl substituted 1,3,8-triazaspiro[4.5]decan-4-one derivatives useful for the treatment of ORL-1 receptor mediated disorders” (Janssen Pharmaceutica, NV, priority 2002, dated 2009).

The target in one experiment is delta opioid receptor (Homo sapiens, UniProt P41143). In words: Filtration binding assay: delta opioid receptor.
Another experiment has as its target kappa opioid receptor (Homo sapiens, UniProt P41145). The experiment is described as follows: Filtration binding assay: kappa opioid receptor.
A further experiment concerns the target mu opioid receptor (Homo sapiens, UniProt P35372). In words: Filtration binding assay: mu opioid receptor.

Read-outs that look alike come from different tables or passages of the source.

mu opioid receptor, sequence (P35372 whole entry): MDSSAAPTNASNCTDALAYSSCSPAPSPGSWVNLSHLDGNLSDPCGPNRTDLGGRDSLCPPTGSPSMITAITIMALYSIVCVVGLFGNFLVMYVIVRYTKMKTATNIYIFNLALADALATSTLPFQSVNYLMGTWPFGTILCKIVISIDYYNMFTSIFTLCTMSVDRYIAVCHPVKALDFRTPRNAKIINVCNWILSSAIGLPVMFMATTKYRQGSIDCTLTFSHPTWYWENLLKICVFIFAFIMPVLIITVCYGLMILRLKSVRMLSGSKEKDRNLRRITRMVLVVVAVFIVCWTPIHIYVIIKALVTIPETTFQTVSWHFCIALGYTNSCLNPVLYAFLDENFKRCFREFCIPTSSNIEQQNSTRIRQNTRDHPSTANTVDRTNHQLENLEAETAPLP
delta opioid receptor, sequence (P41143 whole entry): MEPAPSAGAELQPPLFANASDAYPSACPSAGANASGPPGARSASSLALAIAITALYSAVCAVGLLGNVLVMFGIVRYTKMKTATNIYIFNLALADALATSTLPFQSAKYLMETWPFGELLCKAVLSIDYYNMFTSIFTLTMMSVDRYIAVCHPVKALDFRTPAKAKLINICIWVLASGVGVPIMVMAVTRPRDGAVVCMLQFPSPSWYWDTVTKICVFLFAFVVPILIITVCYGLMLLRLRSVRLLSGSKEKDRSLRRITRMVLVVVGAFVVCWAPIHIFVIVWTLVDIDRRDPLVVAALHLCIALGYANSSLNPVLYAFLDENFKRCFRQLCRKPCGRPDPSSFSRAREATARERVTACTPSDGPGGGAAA
kappa opioid receptor, sequence (P41145 whole entry): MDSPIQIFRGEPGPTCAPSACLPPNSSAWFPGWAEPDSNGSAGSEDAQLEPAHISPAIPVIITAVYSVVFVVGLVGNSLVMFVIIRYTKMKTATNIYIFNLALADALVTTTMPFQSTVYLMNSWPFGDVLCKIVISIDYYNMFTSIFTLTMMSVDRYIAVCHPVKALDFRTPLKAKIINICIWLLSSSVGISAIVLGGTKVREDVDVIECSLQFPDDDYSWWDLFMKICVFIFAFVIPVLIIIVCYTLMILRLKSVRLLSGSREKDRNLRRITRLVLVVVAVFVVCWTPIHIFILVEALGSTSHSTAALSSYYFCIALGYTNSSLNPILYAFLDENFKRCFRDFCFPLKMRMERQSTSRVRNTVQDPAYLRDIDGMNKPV

In the case of `COc1ccc(CCNC[C@H](O)CN2CN(c3ccc(F)cc3)C3(CCN(Cc4cccc5ccccc45)CC3)C2=O)cc1OC` [compound 253], the results for the IC50 on delta opioid receptor, on kappa opioid receptor and on mu opioid receptor were 2160 nM, 400 nM and 760 nM, respectively.
In the case of `CC(C)(C)OC(=O)N1CCN(C[C@H](O)CN2CN(c3ccc(F)cc3)C3(CCN(CC4CCCCCCC4)CC3)C2=O)CC1` [Compound #73], the IC50 is above 10000 nM at delta opioid receptor, 250 nM at kappa opioid receptor and 680 nM at mu opioid receptor.
As for `O=C1N(C[C@@H](O)CNCCc2c[nH]cn2)CN(c2ccc(F)cc2)C12CCN(CC1CCCCCCC1)CC2` [Compound #28], the IC50 on delta opioid receptor is above 10000 nM; on kappa opioid receptor, 180 nM; on mu opioid receptor, 410 nM.
`COc1ccc(CCNC[C@H](O)CN2CN(c3ccc(F)cc3)C3(CCN(C4Cc5cccc6cccc4c56)CC3)C2=O)cc1OC` (mixture of isomers) [compound 48]: the IC50 is above 10000 nM on delta opioid receptor, 170 nM at kappa opioid receptor and 540 nM on mu opioid receptor.
`O=C1N(C[C@H](O)CNCCc2c[nH]cn2)CN(c2ccc(F)cc2)C12CCN(CC1CCCCCCC1)CC2` [Compound #4]: the IC50 at delta opioid receptor is above 10000 nM; on kappa opioid receptor, 110 nM; on mu opioid receptor, 160 nM.
As a reminder, the Ki is a measure of affinity in units of concentration, obtained from inhibition or displacement. Read a high Ki as a looser hold on the target. As for `Cc1cccc2cccc(CN3CCC4(CC3)C(=O)N(C[C@H](O)CNCCN(C)C(=O)OC(C)(C)C)CN4c3ccc(F)cc3)c12` [compound 667], the Ki at delta opioid receptor worked out at 4140 nM; at kappa opioid receptor, 450 nM; on mu opioid receptor, 770 nM.
As to `CN(C)CCN(Cc1ccccc1)C[C@H](O)CN1CN(c2ccc(F)cc2)C2(CCN(CC3CCCCCCC3)CC2)C1=O` [compound 63], the IC50 was found to be 8780 nM at delta opioid receptor, 230 nM at kappa opioid receptor and 3430 nM at mu opioid receptor.
For `O=C1N(C[C@H]2CO2)CN(c2ccc(F)cc2)C12CCN(Cc1ccc3ccccc3c1)CC2` [compound 542], in that order: above 10000 nM, 530 nM and 160 nM.
The like results for `COc1ccc(CCN(C)C[C@@H](O)CN2CN(c3ccc(F)cc3)C3(CCN([C@@H]4Cc5cccc6cccc4c56)CC3)C2=O)cc1OC` [Compound #339, (R)-8-Acenaphthen-1-yl-3-(3-{[2-(3,4-dimethoxy-phenyl)-ethyl]-methyl-amino}-(R)-2-hydroxy-propyl)-1-(4-fluoro-phenyl)-1,3,8-triaza-spiro[4.5]decan-4-one] were, in that order, above 10000 nM, 180 nM and 210 nM.
For the compound `CCN(Cc1ccc(C)cc1)C[C@H](O)CN1CN(c2ccc(F)cc2)C2(CCN(Cc3cccc4ccccc34)CC2)C1=O` [compound 252], the IC50 is above 10000 nM on delta opioid receptor, 1340 nM at kappa opioid receptor and 3700 nM at mu opioid receptor.
With `Cc1ccc(CNC[C@H](O)CN2CN(c3ccc(F)cc3)C3(CCN(CC4CCCCCCC4)CC3)C2=O)cc1` [compound 41], the results for the IC50 on delta opioid receptor, at kappa opioid receptor and at mu opioid receptor were above 10000 nM, 250 nM and 2100 nM, respectively.
`Cc1cccc(CNC[C@H](O)CN2CN(c3ccc(F)cc3)C3(CCN(CC4CCCCCCC4)CC3)C2=O)c1` [compound 18]: the IC50 on delta opioid receptor is above 10000 nM; on kappa opioid receptor, 280 nM; on mu opioid receptor it was 450 nM.
`COc1ccc(CNC[C@@H](O)CN2CN(c3ccc(F)cc3)C3(CCN(CC4CCCCCCC4)CC3)C2=O)cc1OC` [Compound #2]: the IC50 is above 10000 nM on delta opioid receptor, 190 nM at kappa opioid receptor and 1200 nM at mu opioid receptor.
As for `Cc1cccc2cccc(CN3CCC4(CC3)C(=O)N(C[C@H](O)CNCCCN(C)C)CN4c3ccc(F)cc3)c12` [Compound #666, 3-[3-(3-Dimethylamino-propylamino)-2-(R)-hydroxy-propyl]-1-(4-fluoro-phenyl)-8-(8-methyl-naphthalen-1-ylmethyl)-1,3,8-triaza-spiro[4.5]decan-4-one], the inhibitory constant (Ki) is above 5000 nM at delta opioid receptor, 140 nM at kappa opioid receptor and 2590 nM at mu opioid receptor.
For `Cc1cccc2cccc(CN3CCC4(CC3)C(=O)N(C[C@H](O)CN3CCCC3)CN4c3ccc(F)cc3)c12` [compound 705], the inhibition constant (Ki) on delta opioid receptor was above 5000 nM; at kappa opioid receptor, 710 nM; at mu opioid receptor it was 1500 nM.
Consider `CC(C)(C)N(Cc1ccccc1)C[C@H](O)CN1CN(c2ccc(F)cc2)C2(CCN(Cc3cccc4ccccc34)CC2)C1=O` [compound 250], for which the IC50 is above 10000 nM on delta opioid receptor, 380 nM on kappa opioid receptor and 1200 nM on mu opioid receptor.
In the case of `Cc1cccc2cccc(CN3CCC4(CC3)C(=O)N(C[C@H](O)CNCCCO)CN4c3ccc(F)cc3)c12` [Compound #651, 1-(4-Fluoro-phenyl)-3-[2-(R)-hydroxy-3-(3-hydroxy-propylamino)-propyl]-8-(8-methyl-naphthalen-1-ylmethyl)-1,3,8-triaza-spiro[4.5]decan-4-one], the results for the inhibition constant (Ki) at delta opioid receptor, at kappa opioid receptor and at mu opioid receptor were above 5000 nM, 310 nM and 670 nM, respectively.
In the case of `COc1ccc(CCNC[C@@H](O)CN2CN(c3ccc(F)cc3)C3(CCN(C4Cc5cccc6cccc4c56)CC3)C2=O)cc1OC` (mixture of isomers) [compound 300], the figures for the IC50 at delta opioid receptor, on kappa opioid receptor and on mu opioid receptor were 4840 nM, 130 nM and 510 nM, respectively.
With `COc1cc(CCNC[C@H](O)CN2CN(c3ccc(F)cc3)C3(CCN(Cc4cccc5ccccc45)CC3)C2=O)c([N+](=O)[O-])cc1OC` [compound 255], the IC50 is above 10000 nM at delta opioid receptor, 620 nM on kappa opioid receptor and 2490 nM at mu opioid receptor.
For `COC(=O)c1ccc(CNC[C@H](O)CN2CN(c3ccc(F)cc3)C3(CCN(C4Cc5cccc6cccc4c56)CC3)C2=O)cc1` (mixture of isomers) [compound 348], in that order: above 10000 nM, 930 nM and 5420 nM.
Consider `O=C1N(C[C@@H](O)CNc2ccncc2)CN(c2ccc(F)cc2)C12CCN(CC1CCCCCCC1)CC2` [Compound #36, 8-Cyclooctylmethyl-1-(4-fluoro-phenyl)-3-[2-(S)-hydroxy-3-(pyridin-4-ylamino)-propyl]-1,3,8-triaza-spiro[4.5]decan-4-one], for which the IC50 was 1760 nM at delta opioid receptor, 230 nM at kappa opioid receptor and 1760 nM on mu opioid receptor.
For the compound `COc1ccc(CCN(C)C[C@H](O)CN2CN(c3ccc(F)cc3)C3(CCN(Cc4cccc5ccccc45)CC3)C2=O)cc1OC` [compound 256], the figures for the IC50 on delta opioid receptor, on kappa opioid receptor and at mu opioid receptor were above 10000 nM, 1180 nM and 5450 nM, respectively.
For `O=C1N(C[C@@H](O)CNCC23CC4CC(CC(C4)C2)C3)CN(c2ccc(F)cc2)C12CCN(CC1CCCCCCC1)CC2` [compound 17], in that order: above 10000 nM, 250 nM and 650 nM.
The like results for `O=C1N(C[C@@H](O)CNCCN2CCOCC2)CN(c2ccc(F)cc2)C12CCN(Cc1cccc3ccccc13)CC2` [compound 251] were, in that order, above 10000 nM, 450 nM and 1580 nM.
Regarding `Cc1cccc2cccc(CN3CCC4(CC3)C(=O)N(C[C@H](O)CNCCCNC(=O)OC(C)(C)C)CN4c3ccc(F)cc3)c12` [compound 665], the Ki at delta opioid receptor was above 5000 nM; at kappa opioid receptor it was 290 nM; on mu opioid receptor, 2710 nM.
As to `CN(C)C[C@@H](O)CN1CN(c2ccc(F)cc2)C2(CCN([C@@H]3Cc4cccc5cccc3c45)CC2)C1=O` [Compound #423, (R)-Acenaphthen-1-yl-3-(3-dimethylamino-2-hydroxy-(R)-propyl)-1-(4-fluoro-phenyl)-1,3,8-triaza-spiro[4.5]decan-4-one], the IC50 at delta opioid receptor (mean where tested more than once, read-out: Delta IC50) is above 1000 nM; on kappa opioid receptor (mean where tested more than once, read-out: Kappa IC50), 590 nM; at mu opioid receptor (mean where tested more than once, read-out: Mu IC50), 310 nM.
With `CC(=O)NC(CSC[C@H](O)CN1CN(c2ccc(F)cc2)C2(CCN(CC3CCCCCCC3)CC2)C1=O)C(=O)O` (single isomer, unassigned) [compound 447], the IC50 on delta opioid receptor and at mu opioid receptor was 480 nM in each case.
As for `O=C1N(C[C@@H](O)CNCc2cccc(C(F)(F)F)c2)CN(c2ccc(F)cc2)C12CCN(CC1CCCCCCC1)CC2` [Compound #33], the IC50 on kappa opioid receptor was 1160 nM; on mu opioid receptor it was above 10000 nM.
For `Cc1cccc2cccc(CN3CCC4(CC3)C(=O)N(C[C@@H](O)CO)CN4c3ccc(F)cc3)c12` [compound 554], the IC50 on kappa opioid receptor was 9470 nM; on mu opioid receptor, above 10000 nM.
For `O=C1N(C[C@@H](O)CN2CCc3ccccc3C2)CN(c2ccc(F)cc2)C12CCN(Cc1cc(C(F)(F)F)cc(C(F)(F)F)c1)CC2` [compound 682], the IC50 on kappa opioid receptor and at mu opioid receptor was at least 10000 nM each time.
In the case of `O=C(O)c1ccc(CNC[C@H](O)CN2CN(c3ccc(F)cc3)C3(CCN(CC4CCCCCCC4)CC3)C2=O)cc1` [compound 452], the IC50 on kappa opioid receptor turned out to be 1520 nM; at mu opioid receptor, 570 nM.
The like results for `COc1cc(OC)c(CNC[C@H](O)CN2CN(c3ccc(F)cc3)C3(CCN(C4Cc5cccc6cccc4c56)CC3)C2=O)c(OC)c1` (mixture of isomers) [compound 367] were, in that order, 360 nM and 1860 nM.
Take `COc1ccc(CNC[C@H](O)CN2CN(c3ccc(F)cc3)C3(CCN(CC4CCCCCCC4)CC3)C2=O)cc1OC` [compound 22]: the IC50 on kappa opioid receptor turned out to be 300 nM; at mu opioid receptor, 600 nM.
`COc1ccc(CCN(C)C[C@H](O)CN2CN(c3ccc(F)cc3)C3(CCN(Cc4cc(C(F)(F)F)cc(C(F)(F)F)c4)CC3)C2=O)cc1OC` [compound 673]: the IC50 at kappa opioid receptor and at mu opioid receptor was at least 10000 nM each time.
In the case of `COc1ccccc1CNC[C@H](O)CN1CN(c2ccc(F)cc2)C2(CCN(CC3CCCCCCC3)CC2)C1=O` [compound 14], the IC50 on kappa opioid receptor was 400 nM; at mu opioid receptor, 1200 nM.
As to `COc1cc(CNC[C@H](O)CN2CN(c3ccc(F)cc3)C3(CCN(C4Cc5cccc6cccc4c56)CC3)C2=O)cc(OC)c1` (mixture of isomers) [compound 324], the IC50 was 230 nM at kappa opioid receptor and 110 nM at mu opioid receptor.
Turning to `CC(c1ccccc1)N(Cc1ccccc1)C[C@H](O)CN1CN(c2ccc(F)cc2)C2(CCN(Cc3cc(C(F)(F)F)cc(C(F)(F)F)c3)CC2)C1=O` (stereo partly shown) [compound 672], the IC50 on kappa opioid receptor and at mu opioid receptor was at least 10000 nM throughout.
